These results are taken from patent US5049550A, “Diadenosine 5', 5'"-p^1, p^4,-tetraphosphate analogs as antithrombotic agents” (Worcester Foundation for Experimental Biology, priority 1988, dated 1991).

Data set [1] can be described thus: Assay of blood AP4 A and ATP before and after AP4 A infusion in rabbits (in vivo). The arrangement: species or system rabbit. As to the method:
Male, New Zealand white rabbits, weighing 2-2.5 kg., were anesthetized with ketamine hydrochloride (100 mg/kg intramuscularly). AP4 A (Boehringer (100 Mannheim Biochemicals, Indianapolis, Ind.), or saline control was infused via a marginal ear vein. A segment of the left common carotid artery was isolated by vascular clamps. A 1 cm. length of polyethylene tubing (PE-90, Clay Adams, Parsippany, N.Y.) was inserted, secured by silk ligatures, and the blood flow re-established by removing the clamps. Blood was sampled from the right carotid artery for assays of AP4 A and ATP, and for platelet aggregation studies.
After preliminary trials, a standard AP4 A infusion protocol was established as follows: A dose of AP4 A at 50 mg/kg was reconstituted in 10 ml of normal saline and infused by pump at a uniform rate over two hours. Control rabbits received 10 ml of saline alone. The intracarotid cannula was inserted, and the re-establishment of blood flow timed at 15 minutes into the infusion. Upon the completion of infusion at 2 hours, the intracarotid tubing was removed, and its contents flushed out into a petri dish. The presence of a clot or of liquid blood contents was noted.
Blood samples were collected from the carotid artery through a catheter before and after (0, 10, 20, 40, and 60 minutes) infusion of AP4 A. Blood was anticoagulated by mixing with 0.15 volume of acid-citrate-dextrose solution. An aliquot of blood collected at the end of AP4 A infusion (to sample) was incubated at 37° C. and sampled at 10, 20, 40, and 60 minutes to evaluate the in vitro decay of AP4 A. Blood samples of […] 3% perchloric acid and kept at 0° C. for 30 minutes with intermittent vortexing. The acid soluble fraction was recovered by centrifugation at 1000 g for 10 minutes and neutralized by 5M K2 CO3. It was then kept at -80° C. until assay of the nucleotides. The AP4 A assay was performed by coupling the phosphodiesterase and luciferase reactions in a luminometer (Model 6100 Picolite, Packard, Downers Grove, Ill.). The detailed method of AP4 A and ATP assays has been reported elsewhere (Kim, B. K., Chao, F. C., Leavitt, R., Fauci, A. S., Meyers, K. M. and Zamecnik, P. C. Blood, 66:735-737, 1985).
The disappearance of infused AP4 A in the circulation and in incubated blood was studied in 2 rabbits. Mean values of hemoglobin, hematocrit and platelet count were 10.1 g/dl, 30.8% and 362,000/ul respectively. The blood content of AP4 A in the rabbits was 51 nmol/1 blood prior to infusion. […] Kim, B. K. et al., Blood, 66:735-737 (1985); Flodgaard, H., Zamecnik, P. C. Meyers, K. and Klenow, H., Thrombosis Research, 37:345-351 (1986). […] A very rapid disappearance of infused AP4 A was observed, with complete clearance within 10 minutes after infusion. When blood samples obtained at the end of AP4 A infusion were incubated at 37° C., only 15-fold and 4-fold levels of AP4 A, as compared to baseline could be detected after 10 minutes and 20 minutes respectively.

The test system of data set [2] is ADP-induced platelet aggregation. Nature of the data set: Kinetics of ADP-induced platelet aggregation (double-reciprocal plot). Type of data set: cell-based. The following applies: FIG. 6. On the procedure: Changes in light transmission reflecting the velocity of ADP-induced platelet aggregability was determined using a platelet aggregometer. Born, G.V.P., Nature 184:927-929 (1962). […] The Y points on the X-intercept are altered by factors [formula] where I is the concentration of inhibitor, and Ki is a characteristic constant. Points on the X-intercept are given by the expression [formula] intercept when [I]=0. When [I] is known, the equation can be solved for Ki.

Setting [3] is: in vivo, before infusion of AP4 A.

Structures are written as SMILES. Some results are limits rather than exact numbers.

For `Nc1ncnc2c1ncn2[C@@H]1O[C@H](COP(=O)(O)OP(=O)(O)OP(=O)(O)OP(=O)(O)OC[C@H]2O[C@@H](n3cnc4c(N)ncnc43)[C@H](O)[C@@H]2O)[C@@H](O)[C@H]1O` [AP4 A, diadenosine 5',5'"-p^1,p^4 -tetraphosphate], the “level of ATP after AP4 A infusion” value in data set [1] (an initial increment and a late increment) is “bimodal increments”. Besides, the “increase of blood AP4 A at the end of infusion” value in data set [1] (end of infusion) is on record as 125 fold of baseline. Also, in data set [1] (end of infusion, 50 mg/kg), the concentration came to 6400 nM. Besides, in data set [1] (in vivo and ex vivo), the “half-life in rabbit blood” value is “short half-life”. The “ATP, umol/l blood” value in data set [1] (in vivo, 0 min after infusion of AP4 A (50 mg/kg over 2 h)) is on record as 579.0 umol/l blood; in data set [1] (in vivo, 10 min after infusion of AP4 A (50 mg/kg over 2 h)), 573.5 umol/l blood; in data set [1] (in vivo, 20 min after infusion of AP4 A (50 mg/kg over 2 h)) it was 564.0 umol/l blood; in data set [1] (in vivo, 40 min after infusion of AP4 A (50 mg/kg over 2 h)) it was 562.0 umol/l blood; in data set [1] (in vivo, 60 min after infusion of AP4 A (50 mg/kg over 2 h)), 629.5 umol/l blood; in data set [1] (setting [3]), 522.9 umol/l blood. For the same molecule, in data set [1] (setting [3]), the “AP4 A, umol/l blood” value is 0.051 umol/l blood. Moreover, the concentration at 0 h in data set [1] (rabbit, blood, iv, in vivo, 0 min after infusion (50 mg/kg over 2 h), read-out: AP4 A, umol/l blood) came out at 6.41 µmol/L. The concentration at 10 min in data set [1] (rabbit, blood, iv, in vivo, 10 min after infusion (50 mg/kg over 2 h), read-out: AP4 A, umol/l blood) is 0.043 µmol/L. In addition, the concentration at 20 min in data set [1] (rabbit, blood, iv, in vivo, 20 min after infusion (50 mg/kg over 2 h), read-out: AP4 A, umol/l blood) amounted to 0.045 µmol/L. Moreover, the concentration at 40 min in data set [1] (rabbit, blood, iv, in vivo, 40 min after infusion (50 mg/kg over 2 h), read-out: AP4 A, umol/l blood) stood at 0.05 µmol/L. In addition, the concentration at 1 h in data set [1] (rabbit, blood, iv, in vivo, 60 min after infusion (50 mg/kg over 2 h), read-out: AP4 A, umol/l blood) came out at 0.042 µmol/L. For the same molecule, the “time to complete clearance after infusion” value in data set [1] (rabbits, after end of infusion) was not above 10 min. In data set [1] (rabbits, prior to infusion), the “blood content of AP4 A prior to infusion” value came to 51 nmol/1 blood. Moreover, the “blood content of AP4 A: fold lower than the level observed in man” value in data set [1] (rabbits, prior to infusion, versus man) was determined as 7.3 fold. The affinity in data set [2] (competitive inhibition of ADP-induced aggregation), expressed as Ki, was 17.1 µM. Moreover, the “type / relative strength of inhibition” value in data set [2] (double reciprocal plot) is reported as “competitive inhibition”.
